Measurements as given in ChEMBL document CHEMBL1148055, “Bioactive terpenoids from Octocorallia, I. Bioactive diterpenoids: litophynols A and B from the mucus of the soft coral Litophyton sp” (J Nat Prod, 1994).

Experiment: Toxicity against rabbit RBC assessed as hemolytic activity after 15 mins
Format: cell-based, Oryctolagus cuniculus
Settings: erythrocyte, 0.25 h

Row | SMILES | Activity
1 | C=C1CC[C@H](C(C)C)[C@@H]2[C@H]1[C@H]1C[C@](C)(O)[C@@H](O)CC[C@@](C)(OC(=O)CCC)[C@@H]2O1 [LITOPHYNIN E] | Toxic
2 | C=C1[C@@H]2[C@H]([C@H](C(C)C)C[C@H]1OC(C)=O)[C@@H]1O[C@H]2C[C@](C)(O)[C@H](O)CC[C@@]1(C)OC(=O)CCC [LITOPHYNIN I MONOACETATE] | Toxic
3 | C=C1CC[C@H](C(C)C)[C@@H]2[C@H]1[C@@H]1O[C@H]2[C@](C)(OC(=O)CCC)CC[C@H](O)C(=C)[C@H]1O [LITOPHYNOL A] | Toxic
4 | C=C1CC[C@H](C(C)C)[C@@H]2[C@H]1[C@@H]1O[C@H]2[C@](C)(OC(=O)CCC)CC[C@H](O)[C@@](C)(O)[C@H]1O [LITOPHYNOL B] | Toxic
